Marks after values point to notes of the source that are not given here.
Assays:
[1] = test system: healthy volunteers; assay: Phase 1 SAD/MAD study: growth hormone levels; assay type: in vivo, human; conditions: for GH level spike: 150 μg/kg TID
Protocol: A randomized, double-blind, placebo-controlled, single and multiple ascending IV dose (SAD and MAD), sequential-group study to assess the safety, tolerability, PK, and PD of ulimorelin in healthy subjects was initiated and conducted as follows.
Levels on Day 1 were meaningfully greater than those seen in placebo subjects at any timepoint (pooled placebo mean GH levels were 3.2 μg/L and ranged from about 0.1 to 11 μg/L). Over time, the spikes in GH levels diminished but remained measureable and within or slightly greater than the expected physiological range of the assay (0-0.8 μg/L for males and 0-8 μg/L for females).

[2] = test system: healthy volunteers; assay: Phase 1 MAD study: gastric emptying by scintigraphic imaging; assay type: in vivo, human; conditions: for Gastric Emptying Day 1 Improvement Over Baseline T25% / Gastric Emptying Day 1 Improvement Over Baseline T50%: single dose Day 1; for acceleration of liquid meal emptying (GET50) vs pre-dosing baseline: TID
Protocol: Healthy male and female volunteers aged 18 to 55 years participated in the trial. […] The doses studied were SAD: 600, 1200, and 900 μg/kg and MAD: 300, 150, and 80 μg/kg q8H for seven days.

[3] = test system: diabetic gastroparesis patients; conditions: cited from earlier work
[4] = test system: patients with post-operative ileus; conditions: Phase 2, once daily dosing for up to 7 days; cited from earlier work
[5] = test system: intensive care unit patients with severe septic shock; conditions: esmolol group; […] in the control group; cited from earlier work

Compound: ulimorelin
- Mean Max GH ([1]; Female, 150 μg/kg, Day 1): 18.8 μ/L
- Mean Max GH ([1]; Female, 150 μg/kg, Day 4): 10.7 μ/L
- Mean Max GH ([1]; Female, 150 μg/kg, Day 7): 6.2 μ/L
- Mean Max GH ([1]; Female, 300 μg/kg, Day 1): 41.5 μ/L
- Mean Max GH ([1]; Female, 300 μg/kg, Day 4): 31.5 μ/L
- Mean Max GH ([1]; Female, 600 μg/kg, Day 1): 77.9 μ/L
- Mean Max GH ([1]; Female, 900 μg/kg, Day 1): 83.4 μ/L
- Mean Max GH ([1]; Female, 1200 μg/kg, Day 1): 76.0 μ/L
- Mean Max GH ([1]; Male, 150 μg/kg, Day 1): 11.4 µg/L
- Mean Max GH ([1]; Male, 150 μg/kg, Day 4): 2.4 µg/L
- Mean Max GH ([1]; Male, 150 μg/kg, Day 7): 1.7 µg/L
- Mean Max GH ([1]; Male, 300 μg/kg, Day 1): 18.7 µg/L
- Mean Max GH ([1]; Male, 300 μg/kg, Day 4): 4.0 µg/L
- Mean Max GH ([1]; Male, 300 μg/kg, Day 7): 3.0 µg/L
- Mean Max GH ([1]; Male, 600 μg/kg, Day 1): 41.7 µg/L
- Mean Max GH ([1]; Male, 900 μg/kg, Day 1): 79.7 µg/L
- Mean Max GH ([1]; Male, 1200 μg/kg, Day 1): 53.0 µg/L
- Mean Max GH ([1]; Person, 300 μg/kg, Day 7, n = 1): 11.3* μ/L
- GH level spike ([1]; females, Day 1): ~19 µg/L
- GH level spike ([1]; males, Day 1): ~11 µg/L
- Gastric Emptying Day 4 Improvement Over Baseline T25% ([2]; 80 μg/kg q8H): 35%
- Gastric Emptying Day 4 Improvement Over Baseline T50% ([2]; 80 μg/kg q8H): 26%
- Gastric Emptying Day 1 Improvement Over Baseline T25% ([2]; 80 μg/kg): 30%
- Gastric Emptying Day 1 Improvement Over Baseline T50% ([2]; 80 μg/kg): 14%
- Gastric Emptying Day 4 Improvement Over Baseline T25% ([2]; 150 μg/kg q8H): 25%
- Gastric Emptying Day 4 Improvement Over Baseline T50% ([2]; 150 μg/kg q8H): 23%*
- Gastric Emptying Day 1 Improvement Over Baseline T25% ([2]; 150 μg/kg): 45%*
- Gastric Emptying Day 1 Improvement Over Baseline T50% ([2]; 150 μg/kg): 34%*
- Gastric Emptying Day 4 Improvement Over Baseline T25% ([2]; 300 μg/kg q8H): 31%
- Gastric Emptying Day 4 Improvement Over Baseline T50% ([2]; 300 μg/kg q8H): 27%*
- Gastric Emptying Day 1 Improvement Over Baseline T25% ([2]; 300 μg/kg): 54%*
- Gastric Emptying Day 1 Improvement Over Baseline T50% ([2]; 300 μg/kg): 46%*
- acceleration of liquid meal emptying (GET50) vs pre-dosing baseline ([2]; Day 1, both treatment groups): greater than 30%
- acceleration of liquid meal emptying (GET50) vs pre-dosing baseline ([2]; Day 4, both treatment groups): > 20%
- gastric emptying ([3]; Phase 2, 10 patients with diabetic gastroparesis, 30 min IV infusion once daily): accelerated gastric emptying of solid and liquid food
- GCSI scores ([3]; additional Phase 2 study of diabetic gastroparesis patients): improvements in GCSI Loss of Appetite and Vomiting scores
- time to first bowel movement (BM) [4]: shortened time to first bowel movement

Compound: COC(=O)CCc1ccc(OCC(O)CNC(C)C)cc1 (centres unmarked) [esmolol]
- twenty-eight day mortality [5]: 49.4%
